According to PubChem BioAssay AID248 (DTP/NCI, 2004):
Several values for one entry are separate records, joined by “and”; a condition that tells them apart may be missing. Equal entries are not always repeated. Toxic doses and inconclusive results are not listed. Cut-off read from the data, not from the text of the source: active = T/C of 150% or more; inactive = T/C below 125%.

Test system: L1210 leukemia ip in BDF1 mice, survival T/C
Assay: NCI In Vivo Anticancer Drug Screen. Data for tumor model L1210 Leukemia (intraperitoneal) in B6D2F1 (BDF1) mice
Conditions: endpoint: mean survival time, higher = longer survival
Outline: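 In this screen, tumor-bearing mice given compound are compared to those given vehicle, and their survival values are reported as a treated-to-control quotient.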

[1] = dose: 100.0 mg/kg/injection, schedule: Q04DX003 (ip), vehicle: saline
[2] = dose: 200.0 mg/kg/injection, schedule: Q04DX003 (ip), vehicle: saline
[3] = dose: 100.0 mg/kg/injection, schedule: Q01DX009 (ip), vehicle: Klucel (hydroxypropylcellulose) (HPC)
[4] = dose: 100.0 mg/kg/injection, schedule: Q04DX003 (ip), vehicle: Klucel (hydroxypropylcellulose) (HPC)
[5] = dose: 200.0 mg/kg/injection, schedule: Q01DX009 (ip), vehicle: Klucel (hydroxypropylcellulose) (HPC)
[6] = dose: 200.0 mg/kg/injection, schedule: Q04DX003 (ip), vehicle: Klucel (hydroxypropylcellulose) (HPC)
[7] = dose: 400.0 mg/kg/injection, schedule: Q04DX003 (ip), vehicle: Klucel (hydroxypropylcellulose) (HPC)
[8] = dose: 50.0 mg/kg/injection, schedule: Q01DX009 (ip), vehicle: saline with Tween-80
[9] = dose: 100.0 mg/kg/injection, schedule: Q01DX009 (ip), vehicle: saline with Tween-80
[10] = dose: 200.0 mg/kg/injection, schedule: Q01DX009 (ip), vehicle: saline with Tween-80
[11] = dose: 12.5 mg/kg/injection, schedule: Q04DX003 (ip), vehicle: saline
[12] = dose: 25.0 mg/kg/injection, schedule: Q04DX003 (ip), vehicle: saline

Measured: T/C

O=Cc1ccc(/C=C2\NC(=O)NC2=O)cc1
inactive: dose: 25.0 mg/kg/injection, schedule: Q01DX009 (ip), vehicle: water 90 % of control | dose: 50.0 mg/kg/injection, schedule: Q01DX009 (ip), vehicle: water 92 % of control | dose: 100.0 mg/kg/injection, schedule: Q01DX009 (ip), vehicle: water 96 % of control | dose: 200.0 mg/kg/injection, schedule: Q01DX009 (ip), vehicle: water 93 % of control

CC(=O)CCCN(CCO)CCO
inactive: dose: 100.0 mg/kg/injection, schedule: Q01DX009 (ip), vehicle: saline 88 % of control | [1] 96 % of control | dose: 200.0 mg/kg/injection, schedule: Q01DX009 (ip), vehicle: saline 92 % of control | [2] 96 % of control | dose: 400.0 mg/kg/injection, schedule: Q01DX009 (ip), vehicle: saline 96 % of control | dose: 400.0 mg/kg/injection, schedule: Q04DX003 (ip), vehicle: saline 102 % of control

CCCCCCCN(CCCCCCC)CC(O)c1c2ccccc2cc2c1ccc1ccccc12 (stereo not given)
inactive: [3] 91 % of control | [4] 101 % of control | [5] 104 % of control | [6] 93 % of control | [7] 93 % of control

NC(=S)N/N=C/c1ccc([N+](=O)[O-])s1 (tested in a mixture with another compound)
inactive: dose: 100.0 mg/kg/injection, schedule: Q01DX001 (ip), vehicle: carboxymethylcellulose (CMC) 92 % of control | dose: 200.0 mg/kg/injection, schedule: Q01DX001 (ip), vehicle: carboxymethylcellulose (CMC) 97 % of control | dose: 400.0 mg/kg/injection, schedule: Q01DX001 (ip), vehicle: carboxymethylcellulose (CMC) 94 % of control

CCCCNc1nnc(N)s1
inactive: dose: 100.0 mg/kg/injection, schedule: Q04DX002 (ip), vehicle: saline with Tween-80 98 % of control | dose: 200.0 mg/kg/injection, schedule: Q04DX002 (ip), vehicle: saline with Tween-80 98 % of control

O=C1CN=C(c2ccccn2)c2cc(Br)ccc2N1
inactive: dose: 3.1 mg/kg/injection, schedule: Q03HX024 (ip), vehicle: Klucel (hydroxypropylcellulose) (HPC) 98 % of control | dose: 6.2 mg/kg/injection, schedule: Q03HX024 (ip), vehicle: Klucel (hydroxypropylcellulose) (HPC) 100 % of control | dose: 12.5 mg/kg/injection, schedule: Q03HX024 (ip), vehicle: Klucel (hydroxypropylcellulose) (HPC) 98 % of control | dose: 25.0 mg/kg/injection, schedule: Q03HX024 (ip), vehicle: Klucel (hydroxypropylcellulose) (HPC) 94 % of control | dose: 50.0 mg/kg/injection, schedule: Q03HX024 (ip), vehicle: Klucel (hydroxypropylcellulose) (HPC) 97 % of control | dose: 100.0 mg/kg/injection, schedule: Q01DX001 (ip), vehicle: Klucel (hydroxypropylcellulose) (HPC) 96 % of control | [3] 94 % of control | dose: 100.0 mg/kg/injection, schedule: Q04DX002 (ip), vehicle: Klucel (hydroxypropylcellulose) (HPC) 101 % of control and 109 % of control | [4] 101 % of control | dose: 119.0 mg/kg/injection, schedule: Q01DX001 (ip), vehicle: Klucel (hydroxypropylcellulose) (HPC) 98 % of control | dose: 178.0 mg/kg/injection, schedule: Q01DX001 (ip), vehicle: Klucel (hydroxypropylcellulose) (HPC) 98 % of control | dose: 200.0 mg/kg/injection, schedule: Q01DX001 (ip), vehicle: Klucel (hydroxypropylcellulose) (HPC) 93 % of control | [5] 106 % of control | dose: 200.0 mg/kg/injection, schedule: Q04DX002 (ip), vehicle: Klucel (hydroxypropylcellulose) (HPC) 93 % of control and 98 % of control | [6] 97 % of control | dose: 266.0 mg/kg/injection, schedule: Q01DX001 (ip), vehicle: Klucel (hydroxypropylcellulose) (HPC) 89 % of control | dose: 400.0 mg/kg/injection, schedule: Q01DX001 (ip), vehicle: Klucel (hydroxypropylcellulose) (HPC) 96 % of control | dose: 400.0 mg/kg/injection, schedule: Q01DX009 (ip), vehicle: Klucel (hydroxypropylcellulose) (HPC) 96 % of control | dose: 400.0 mg/kg/injection, schedule: Q04DX002 (ip), vehicle: Klucel (hydroxypropylcellulose) (HPC) 92 % of control | [7] 101 % of control | dose: 600.0 mg/kg/injection, schedule: Q01DX001 (ip), vehicle: Klucel (hydroxypropylcellulose) (HPC) 106 % of control

COc1cccc(/C=N/NC(=O)CNC(=O)Nc2cccc([N+](=O)[O-])c2)c1OC
inactive: [8] 89 % of control | [9] 96 % of control | [10] 89 % of control

COC1C(=O)CCC2(CO2)C1(O)C1(C)OC1CC=C(C)C (stereo not given)
inactive: [8] 104 % of control | [9] 109 % of control | [1] 106 % of control | [10] 87 % of control | [2] 100 % of control

O=C(Oc1ccc([N+](=O)[O-])cc1)c1ccccc1S(=O)OCCc1ccccc1 (stereo not given)
inactive: dose: 100.0 mg/kg/injection, schedule: Q01DX001 (ip), vehicle: other 92 % of control | dose: 200.0 mg/kg/injection, schedule: Q01DX001 (ip), vehicle: other 95 % of control

CC(=O)Nc1c(OC(C)=O)ccc2cc(Br)ccc12
inactive: dose: 100.0 mg/kg/injection, schedule: Q01DX015 (ip), vehicle: saline 92 % of control | dose: 200.0 mg/kg/injection, schedule: Q01DX015 (ip), vehicle: saline 100 % of control | dose: 400.0 mg/kg/injection, schedule: Q01DX015 (ip), vehicle: saline 92 % of control | dose: 800.0 mg/kg/injection, schedule: Q01DX015 (ip), vehicle: saline 96 % of control

CCCCCCCCCCCCCC[N+](C)(C)CCCCCCCCCCCCCC
inactive: dose: 12.5 mg/kg/injection, schedule: Q01DX009 (ip), vehicle: saline 108 % of control | [11] 104 % of control | dose: 25.0 mg/kg/injection, schedule: Q01DX009 (ip), vehicle: saline 106 % of control | [12] 105 % of control | dose: 50.0 mg/kg/injection, schedule: Q01DX009 (ip), vehicle: saline 90 % of control | dose: 50.0 mg/kg/injection, schedule: Q04DX003 (ip), vehicle: saline 102 % of control

NNS(=O)(=O)Cc1ccccc1
inactive: dose: 100.0 mg/kg/injection, schedule: Q01DX001 (ip), vehicle: saline 100 % of control | dose: 200.0 mg/kg/injection, schedule: Q01DX001 (ip), vehicle: saline 95 % of control

CC(=O)Oc1ccc(C)cc1
inactive: dose: 50.0 mg/kg/injection, schedule: Q01DX009 (ip), vehicle: Klucel (hydroxypropylcellulose) (HPC) 94 % of control | [3] 110 % of control | [4] 100 % of control | [5] 107 % of control | [6] 104 % of control

O=[N+]([O-])c1ccc(S(=O)CCCl)c([N+](=O)[O-])c1 (stereo not given)
inactive: dose: 6.25 mg/kg/injection, schedule: Q04DX003 (ip), vehicle: saline 96 % of control | [11] 97 % of control | dose: 25.0 mg/kg/injection, schedule: Q04DX003 (ip), vehicle: saline with Tween-80 100 % of control | [12] 97 % of control

CC(=O)Nc1ccc(Br)cc1[N+](=O)[O-]
inactive: dose: 100.0 mg/kg/injection, schedule: Q01DX009 (ip), vehicle: acetone 92 % of control | dose: 200.0 mg/kg/injection, schedule: Q01DX009 (ip), vehicle: acetone 106 % of control | dose: 400.0 mg/kg/injection, schedule: Q01DX009 (ip), vehicle: acetone 101 % of control

CN(C)C(=O)Oc1c(Cl)cccc1Cl
inactive: [3] 92 % of control | [4] 97 % of control | [5] 97 % of control | [6] 96 % of control | [7] 89 % of control
